Patent publication US20260232644A1, “Compositions Comprising an Inhibitor of Galectin-3” (University of Liverpool, priority 2023, published 2026)
Where a name gives a salt, the structure may show the parent alone.

What was measured:
[1] = tested on: human lung cancer H1975 cells; test: Lung cancer cell adhesion to basement matrix; type: cell-based
Procedure: (§1) Nanty-six well plates were coated with 50 μl Matrigel (1:30 diluted in PBS) at 37° C. for 1 hour.
(§2) Cancer cells, pre-labelled with fluorescent die DiI at 37° C. for 20 minutes, were washed twice with PBS and resuspended into 3×10^4 cells/ml in serum-free medium. The matrix-coated 96-well plates were washed twice with PBS before introduction of 100μ cell suspension with different concentrations of the inhibitors or PBS/DMSO (control) for 1 hour at 37° C. The plates were washed twice with PBS before three randomly selected Field of Views (FOVs) were recorded by fluorescence microscope and number of adhesion cells were quantified by Image J.

[2] = tested on: human melanoma ACA19 cells; test: Galectin-3-mediated ACA19 cell adhesion to HUVECs; type: cell-based; conditions: Galectin-3 2 μg/ml, various concentrations
Procedure: (§3) HUVEC cells at 1×10^5 cells/ml in EGM medium were seeded into 24 well plates pre-inserted with 13 mm glass coverslip. The cells were incubated at 37° C. at 5% CO2 for 24 hr for monolayer formation. AGA19+ or SW620 cell suspension (5×10^5 cells/ml in DMEM) was introduced with 5 μl/ml fluorescent cell labelling solution DiL for 30 min at 37° C. The fluorescent labelled cells were washed twice with PBS and resuspended into 1×10^5 cells/ml in DMEM. The cancer cell suspension was then introduced with galectin-3 (2 μg/ml) and various concentrations of the compound inhibitors at 37° C. for 1 hr. The wells were carefully washed twice with PBS to remove the non-adhesion cells before the cells in the wells were fixed with 2% paraformaldehyde for 10 min. The glass coverslip was carefully removed from the plate, placed on a glass slide. After addition of fluorescence mounting medium containing DAPI, fluorescence labelled cells were quantified under a fluorescence microscope.

[3] = tested on: THP-1 differentiated macrophages; test: Galectin-3-induced IL-1β secretion from macrophages (ELISA); type: cell-based; conditions: Galectin-3 10 μg/ml, various concentrations
Procedure: Effect of the compound inhibitors on secretion of pro-inflammatory cytokines from macrophages were assessed in THP-1 monocyte differentiated macrophages. THP-1 cells were induced to differentiation into macrophages by incubation with 10 ng/ml PMA for 48 h at 37° C. The culture medium was then replaced with fresh medium without or with 10 μg/ml galectin-3 and various concentrations of the compound inhibitors for 24 h at 37° C. The culture medium was collected and the concentrations of TNFα and IL-1β in the culture medium were determined by TNFα and IL-1β ELISA.

yeast = test: Genotoxicity in yeast
Galectin-3 = molecular target: T1, Galectin-3 (Homo sapiens, UniProt P17931); test: Galectin-3 binding to asialofetuin (ASF) ELISA
T1 construct: made in house; host or cells: E. coli
T1 sequence (P17931 whole entry): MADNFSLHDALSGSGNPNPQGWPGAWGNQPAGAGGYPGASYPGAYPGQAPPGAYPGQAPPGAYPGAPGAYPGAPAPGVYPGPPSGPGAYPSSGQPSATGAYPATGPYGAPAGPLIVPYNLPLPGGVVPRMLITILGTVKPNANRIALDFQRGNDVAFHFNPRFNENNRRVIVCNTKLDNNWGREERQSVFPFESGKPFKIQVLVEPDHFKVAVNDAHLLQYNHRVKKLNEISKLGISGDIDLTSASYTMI
Procedure: (§4) Effect of the inhibitors on galectin binding to its ligand asialo fetuin (ASF) was measured by galectin ELISA. Nanty-six well plates were coated overnight with 20 μg/ml ASF in coating buffer (15 mM Na2CO3 17 mM NaHCO3 pH 9.6.). The wells were washed twice with PBS and incubated with blocking buffer (1% BSA in PBS) for 1 hr. The supernatants were removed and replaced with 5 μg/ml recombinant human galectin without or with different concentrations of the compound inhibitors or lactose in blocking buffer for 1 hr at room temperature. The wells were washed and incubated with 1 μg/ml anti-galectin antibody for 2 hr. Following addition of HRP-conjugated secondary antibody for 1 hr, FAST OPD development solution was added for 15-20 minutes. The reaction was terminated by addition of 4M sulphuric acid. The plates were read at 492 nm (reference wavelength 595 nm) by a microplate reader.

[4] = tested on: human colon cancer SW620 cells; test: Galectin-3-mediated SW620 cell adhesion to HUVECs; type: cell-based; conditions: Galectin-3 2 μg/ml, various concentrations
Procedure: as §3

[5] = tested on: triple-negative breast cancer MDA-MB-231 cells; test: Triple-negative breast cancer cell adhesion to basement matrix; type: cell-based, human; conditions: Homo sapiens, MDA-MB-231
Procedure: as §1, §2
MDAMB-231 or PANC-1 cells were seeded into 6-well plate (2×10^5 cells) and cultured at 37° C. for 24 hour. Galectin-3 CRISPR Cas9 Knockout plasmid (2 μg) and galectin-3 HDR plasmid (2 μg) was mixed with Plasmid Transfection Medium (21 μl) for 5 minutes before addition to a mixture of lipofectamine STEM Transfection Reagent (STEM00001) (1 μl) and Plasmid Transfection Medium (25 μl) for 10 minutes at room temperature. The cells in the 6-well plates were washed and introduced with the Plasmid DNA/Lipofectamine STEM Transfection Reagent complex at 37° C. for 24 hour. The culture medium was replaced with fresh antibiotics-free medium for further 24 hour before introduction of 10 μg/mL puromycin-containing medium every three days. Successful co-transfection of the CRISPR/Cas9 KO Plasmid and HDR Plasmid was confirmed by expression of red fluorescence protein of the cells. Galectin-3 knockout in the cells was further confirmed by immunoblotting.

Galectin-8 = molecular target: T2, Galectin-8 (Homo sapiens, UniProt O00214); test: Galectin-8 binding to asialofetuin ELISA; conditions: Gal-8 5 μg/ml, ASF 20 μg/ml
T2 construct: purchased R&D Systems (Abingdon, UK)
T2 sequence (O00214 1-317): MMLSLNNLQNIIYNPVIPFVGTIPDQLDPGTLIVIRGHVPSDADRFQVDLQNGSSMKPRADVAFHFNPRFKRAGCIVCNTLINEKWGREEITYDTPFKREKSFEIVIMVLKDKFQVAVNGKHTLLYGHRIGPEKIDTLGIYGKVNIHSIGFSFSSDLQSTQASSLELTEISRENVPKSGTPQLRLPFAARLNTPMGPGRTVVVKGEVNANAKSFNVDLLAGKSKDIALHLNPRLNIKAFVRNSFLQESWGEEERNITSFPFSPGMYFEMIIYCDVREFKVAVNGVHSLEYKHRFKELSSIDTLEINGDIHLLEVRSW
Procedure: as §4

vascular HUVECs = test: LDH release cytotoxicity assay, HUVECs; type: cell-based, human
Procedure: (§5) SW620 cells (5×10^4 cells/ml) were seeded into 96-well plate in DMEM (and incubated at 37° C. 5% CO2 for 24 hr. HUVECs (1.0×10^5 cells/ml) was seeded in EBM medium and incubated for 24-36 hr until they formed a monolayer. Compound inhibitors at different concentrations were then introduced to the cells (10× lysis buffer was included as maximum LDH activity control) for 24 hr. The culture medium was transferred to a new plate and was mixed with equal volume of reaction mixture provided in the kit for 30 min at room temperature before the absorbance was measured at 490 nm (reference 680 nm) by a spectrophotometer.

[6] = tested on: human colon cancer SW620 cells; test: LDH release cytotoxicity assay, SW620; type: cell-based
Procedure: as §5

[7] = molecular target: T3, C-terminal (aa 115-250) Galectin-3 (Homo sapiens, UniProt P17931); test: Tryptophan Fluorescence Spectroscopy (TFS) binding affinity, C-terminal Galectin-3
T3 construct: made in house; host or cells: E. coli
T3 sequence (P17931 115-250): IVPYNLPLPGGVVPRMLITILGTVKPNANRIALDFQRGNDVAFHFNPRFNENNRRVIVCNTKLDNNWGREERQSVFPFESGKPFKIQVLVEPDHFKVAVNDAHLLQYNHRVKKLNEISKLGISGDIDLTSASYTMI
Procedure: The binding affinity of the inhibitors to galectin-3 was determined by Intrinsic Tryptophan Fluorescence Spectroscopy (TFS) exactly as we described recently [Sindrewicz, P., et al., Intrinsic tryptophan fluorescence spectroscopy reliably determines galectin-ligand interactions. Sci Rep, 2019. 9(1): p. 11851]. The Galectin-3 concentration used was 10 μM and the inhibitor titration concentrations were from 0 to 224 μM. DMSO/control buffer (PBS with 2 mM EDTA) titrations were performed and used for background subtraction.

NC1CCN(c2nc3c(cc2F)c(=O)c(C(=O)O)cn3-c2ccc(F)cc2F)C1 (stereo not drawn) [Formula X, Tosufloxacin tosylate]
IC50 ([1]; Homo sapiens, NCI-H1975): ~5 µM
Inhibition of H1975 cell adhesion to matrix ([1]; different concentrations): dose-dependent inhibition
Inhibition of ACA19 cell adhesion to HUVECs [2]: dose-dependent inhibition
Inhibition of galectin-3-induced IL-1β secretion [3]: dose-dependent inhibition
Genotoxicity in yeast (yeast): no detectable genotoxicity
Inhibition of Galectin-3 binding to its ligand asialofetuin (ASF) (Galectin-3; Galectin-3 5 μg/ml, ASF 20 μg/ml, different concentrations of compound, ELISA): inhibit galectin-3 binding to ASF in a dose-dependent manner
IC50 (Galectin-3; read-out: IC50, inhibition of Galectin-3 binding to its ligand): ≤ 10 µM
Inhibition of SW620 cell adhesion to HUVECs [4]: dose-dependent inhibition
IC50 [5]: ~10 µM
Effect on Galectin-8 binding to asialofetuin (Galectin-8): does not affect binding
Cytotoxicity to HUVEC cells (LDH release) (vascular HUVECs; at 100 μM): no detectable cytotoxicity
Cytotoxicity to HUVEC cells (LDH release) (vascular HUVECs; various concentrations): low cytotoxicity
Cytotoxicity to SW620 cells (LDH release) ([6]; at 100 μM): no detectable cytotoxicity
Cytotoxicity to SW620 cells (LDH release) ([6]; various concentrations): low cytotoxicity
Kd [7]: 5 to 7 µM
